Here are results for nine molecules from patent US8258178B2, “Agents for preventing attachment of barnacle consisting of organic solvent extracts of red alga Laurencia sp. and compounds isolated therefrom” (Central Research Institute of Electric Power Industry, priority 2007, dated 2012).

For data set [1], the system named is cypris larvae of Amphibalanus amphitrite. In words: whole plant or invertebrate. In kind it is in vivo. The conditions noted are these: for EC50: Amphibalanus amphitrite, 48 h, read-out: EC50 of attachment•metamorphosis of cypris larvae. The procedure: (§1) Adult samples of Amphibalanus amphitrite collected from Lake Hamanako, Shizuoka-ken in the breeding season (May to November in Hamanakako) were subject to drying stimulus for about 12 hours (drying stimulus refers to taking out barnacles out of the breeding water and let them dry), and then they were put into a water bath, thereby allowing eggs to hatch into nauplius larvae (if the adults are not in a breeding season, they are subject to food satiation breeding for about two weeks at a water temperature of 20° C. to 25° C., and after subjecting to drying stimulus for about 12 hours, they are housed in a water bath to allow eggs to hatch into nauplius larvae). […] At 5th day of breeding, the nauplius larvae metamorphosed into cypris larvae, which were collected using light or the like and refrigerated (4° C.) for two days, and then used for attachment•metamorphosis inhibition tests.
(§2) Into a 24-well multi plate made of polystyrene (Corning, Inc.) was put an ethanol solution in which a methanol extract of red algae laurencia sp. of the present invention or the compound of the present invention was dissolved, and allowed to dry, followed by charging of 2 mL filtered seawater. Six individual cypris larvae of Amphibalanus amphitrite were put into each well and bred at 25° C. for two to five days, and the number of individuals that metamorphosed from cypris larvae into barnacle immatures while attaching to the plate surface, the number of individuals not attached thereto and still swimming as cypris larvae, and the number of dead individuals were counted under a stereoscopic microscope. The tests were conducted using four wells each for a same concentration of the compound of the present invention, and the tests were repeated three or more times. […] Furthermore, the concentration at which the ratio of the number of attaching•metamorphosing individuals to the number of all the subject individuals after 2 days is one-half in comparison with the case not having the compounds of the present invention, was represented by EC50. Concentrations (μg/ml) were represented by the value obtained by dividing the amount of the methanol extract of red algae laurencia sp. (μg) or the amount of the compound (μg) added per well by 2 mL of filtered seawater added per well.

The nature of data set [2]: in vivo. Format: in vivo. The conditions noted are these: Amphibalanus amphitrite (barnacle, cypris larvae), in vivo; concentration at which dead individuals after 5 days account for 50% of all individuals; read-out: LC50 (toxicity to larvae). The method, then:
as §1, §2

The conditions of data set [3]: Non-Patent Document 7; cited from earlier work.
The subject of data set [4] is barnacle. The conditions noted are these: reported in Non-Patent Documents 1 and 2; cited from earlier work.
Setting [5] is: after 2 days, concentration at which ratio of attaching•metamorphosing individuals is one-half of the case without compound, 25° C., 24-well plate, 2 mL filtered seawater.

SMILES strings stand for the structures. Converted amounts (≈) assume the structure as drawn. Read-outs that look alike come from different tables or passages of the source.

For `CC[C@@H]1[C@@H]2[C@H]3OC(C=C=CBr)C[C@H]3O[C@]2(O)[C@@H](Br)C[C@H]1Br` (stereo partly drawn) [Hachijojimallene A], the “EC50 of attachment•metamorphosis of cypris larvae” value in data set [1] (setting [5]) came out at 0.15 µg/mL. In data set [1] (concentration at which dead individuals after 5 days account for 50% of all individuals), the “LC50 (toxicity to larvae)” value was 9.8 µg/mL (≈ 20.1 µM).
Consider `C#C/C=C/C[C@@H](OC(C)=O)[C@H]1C/C=C\C[C@H](Br)[C@@H](CC)O1` [Laurencin], for which the “EC50 of attachment•metamorphosis of cypris larvae” value in data set [1] (setting [5]) came to 0.23 µg/mL. For the same molecule, in data set [1] (at 100 μg/mL), the toxicity to larvae entry is on record as “no toxicity at all”.
The LC50 is the concentration lethal to half of the exposed cells or organisms. One may read the EC50 as the concentration that produces a half-maximal response. Take `CC(C)=CCC[C@@](C)(O)[C@@H](O)CC[C@](C)(O)[C@H]1CC[C@H]2O[C@@H]([C@]3(C)CC[C@@H](Br)C(C)(C)O3)CC[C@]2(C)O1` [Magireol A]: in data set [2], the LC50 at 5 days is 14.4 µg/mL (≈ 24.4 µM). In data set [1], the EC50 worked out at 0.3 µg/mL (≈ 0.509 µM).
With `CC/C(Br)=C\C=C\[C@@H](O)[C@H](Br)[C@@H]1O[C@@H](C=C=CBr)C[C@@H]1O` [Omaezallene], the LC50 at 5 days in data set [2] came to 3.4 µg/mL (≈ 6.98 µM). Moreover, the EC50 in data set [1] (setting [5]) was 0.22 µg/mL.
Turning to `CC(C)(O)[C@H]1CC[C@](C)([C@@H](O)CC[C@](C)(O)[C@H]2CC[C@H]3O[C@@H]([C@]4(C)CC[C@@H](Br)C(C)(C)O4)CC[C@]3(C)O2)O1` [Thyrsiferol], the LC50 at 5 days in data set [2] amounted to 2.5 µg/mL (≈ 4.13 µM). Further, in data set [1], the EC50 amounted to 0.11 µg/mL (≈ 0.182 µM). The cytotoxicity result in data set [3] is reported as “known to have cytotoxicity”.
As to `C=C1C[C@H](O)[C@H](Br)C(C)(C)[C@]12CC=C(C)CC2` [deschloroelatol], in data set [4], the “barnacle attachment inhibitory activity” value was “have a barnacle attachment inhibitory activity”.
As to `C=C1C[C@H](O)[C@H](Br)C(C)(C)[C@@]12CCC(C)=C(Cl)C2` [elatol], the “barnacle attachment inhibitory activity” value in data set [4] is listed as “have a barnacle attachment inhibitory activity”.
Regarding `C=C1[C@@H](C)CC[C@@]1(C)c1cc(Br)c(C)cc1O` [isolaurinterol], the “barnacle attachment inhibitory activity” value in data set [4] is “possess a barnacle attachment inhibitory activity”.
Consider `Cc1cc(O)c([C@]2(C)CC[C@@H]3C[C@@]32C)cc1Br` [laurinterol], for which the “barnacle attachment inhibitory activity” value in data set [4] is “possess a barnacle attachment inhibitory activity”.
